Where “and” joins values, the source holds several entries; their conditions need not be identical. Equal entries are not always repeated. Inconclusive results and toxic doses are left out. Cut-off read from the data, not from the text of the source: active = T/C of 150% or more; inactive = T/C below 125%.
System: L1210 leukemia ip in BDF1 mice, survival T/C
Experiment: NCI In Vivo Anticancer Drug Screen. Data for tumor model L1210 Leukemia (intraperitoneal) in B6D2F1 (BDF1) mice
Details: endpoint: mean survival time, higher = longer survival
How it was run: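 In this screen, tumor-bearing mice given compound are compared to those given vehicle, and their survival values are reported as a treated-to-control quotient.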

[1] = dose: 400.0 mg/kg/injection, schedule: Q04DX002 (ip), vehicle: saline with Tween-80
[2] = dose: 100.0 mg/kg/injection, schedule: Q01DX001 (ip), vehicle: saline
[3] = dose: 200.0 mg/kg/injection, schedule: Q01DX001 (ip), vehicle: saline
[4] = dose: 400.0 mg/kg/injection, schedule: Q01DX001 (ip), vehicle: saline
[5] = dose: 50.0 mg/kg/injection, schedule: Q04DX003 (ip), vehicle: saline
[6] = dose: 100.0 mg/kg/injection, schedule: Q04DX003 (ip), vehicle: saline
[7] = dose: 200.0 mg/kg/injection, schedule: Q04DX003 (ip), vehicle: saline
[8] = dose: 100.0 mg/kg/injection, schedule: Q01DX009 (ip), vehicle: saline
[9] = dose: 200.0 mg/kg/injection, schedule: Q01DX009 (ip), vehicle: saline
[10] = dose: 100.0 mg/kg/injection, schedule: Q04DX003 (ip), vehicle: Klucel (hydroxypropylcellulose) (HPC)
[11] = dose: 200.0 mg/kg/injection, schedule: Q04DX003 (ip), vehicle: Klucel (hydroxypropylcellulose) (HPC)
[12] = dose: 100.0 mg/kg/injection, schedule: Q01DX009 (ip), vehicle: saline with Tween-80
[13] = dose: 200.0 mg/kg/injection, schedule: Q01DX009 (ip), vehicle: saline with Tween-80
[14] = dose: 400.0 mg/kg/injection, schedule: Q01DX009 (ip), vehicle: saline with Tween-80

Measured: T/C

COc1cc(C=O)ccc1OC(=O)Nc1cc(C)ccc1C
inactive: dose: 25.0 mg/kg/injection, schedule: Q01DX009 (ip), vehicle: saline with Tween-80 100 % of control and 91 % of control | dose: 50.0 mg/kg/injection, schedule: Q01DX001 (ip), vehicle: saline with Tween-80 96 % of control | dose: 50.0 mg/kg/injection, schedule: Q01DX009 (ip), vehicle: saline with Tween-80 97 % of control and 101 % of control | dose: 100.0 mg/kg/injection, schedule: Q01DX001 (ip), vehicle: saline with Tween-80 97 % of control | dose: 100.0 mg/kg/injection, schedule: Q04DX002 (ip), vehicle: saline with Tween-80 91 % of control and 92 % of control | dose: 200.0 mg/kg/injection, schedule: Q01DX001 (ip), vehicle: saline with Tween-80 94 % of control and 92 % of control | dose: 200.0 mg/kg/injection, schedule: Q04DX002 (ip), vehicle: saline with Tween-80 94 % of control and 106 % of control | [1] 94 % of control and 92 % of control

O=C(OC(=O)c1cccc2ccccc12)c1cccc2ccccc12
inactive: [2] 94 % of control | [3] 102 % of control | [4] 94 % of control

CN(C)C(=NN)N(C)C
inactive: [5] 105 % of control | [6] 100 % of control | [7] 100 % of control

O=C1OC2CC3CC2C1C3C(=O)N1CCOCC1 (stereo not drawn)
inactive: [6] 100 % of control and 96 % of control | [7] 91 % of control and 98 % of control | dose: 400.0 mg/kg/injection, schedule: Q04DX003 (ip), vehicle: saline 100 % of control and 98 % of control

CC(C)C(C(=O)O)N(C)N=O (stereo not drawn)
inactive: [5] 94 % of control | dose: 100.0 mg/kg/injection, schedule: Q01DX001 (ip), vehicle: acetone 101 % of control | [6] 97 % of control | dose: 200.0 mg/kg/injection, schedule: Q01DX001 (ip), vehicle: acetone 103 % of control | [7] 94 % of control

Fc1cccc(CSC(=S)Nc2ccc(Cl)c(Cl)c2)c1
inactive: dose: 50.0 mg/kg/injection, schedule: Q04DX003 (ip), vehicle: saline with Tween-80 101 % of control | dose: 100.0 mg/kg/injection, schedule: Q04DX003 (ip), vehicle: saline with Tween-80 104 % of control

O=c1[nH]cncc1CCC1OCCO1
inactive: [8] 98 % of control | [9] 109 % of control

CCCCSP(=O)(Cc1ccccc1)SCCCC
inactive: dose: 12.5 mg/kg/injection, schedule: Q04DX003 (ip), vehicle: Klucel (hydroxypropylcellulose) (HPC) 102 % of control | dose: 25.0 mg/kg/injection, schedule: Q04DX003 (ip), vehicle: Klucel (hydroxypropylcellulose) (HPC) 95 % of control | dose: 50.0 mg/kg/injection, schedule: Q04DX003 (ip), vehicle: Klucel (hydroxypropylcellulose) (HPC) 97 % of control

O=C(OC(c1ccccc1)c1ccccc1)C(CSC(c1ccccc1)(c1ccccc1)c1ccccc1)NC(c1ccccc1)(c1ccccc1)c1ccccc1 (stereo not drawn)
inactive: [10] 91 % of control | [11] 92 % of control

CC(C)Oc1ccc2c(c1)Sc1ccc(Cl)cc1N2
inactive: [12] 102 % of control | [13] 94 % of control | [14] 92 % of control

O=[N+]([O-])c1c(Cl)nc2ccccn12
inactive: dose: 3.13 mg/kg/injection, schedule: Q01DX009 (ip), vehicle: saline 93 % of control | dose: 5.0 mg/kg/injection, schedule: Q01DX001 (ip), vehicle: saline 100 % of control | dose: 6.25 mg/kg/injection, schedule: Q01DX009 (ip), vehicle: saline 95 % of control | dose: 10.0 mg/kg/injection, schedule: Q01DX001 (ip), vehicle: saline 98 % of control | dose: 12.5 mg/kg/injection, schedule: Q01DX009 (ip), vehicle: saline 93 % of control | dose: 20.0 mg/kg/injection, schedule: Q01DX001 (ip), vehicle: saline 100 % of control | dose: 25.0 mg/kg/injection, schedule: Q01DX009 (ip), vehicle: saline 93 % of control | dose: 40.0 mg/kg/injection, schedule: Q01DX001 (ip), vehicle: saline 96 % of control | dose: 80.0 mg/kg/injection, schedule: Q01DX001 (ip), vehicle: saline 93 % of control | [2] 101 % of control | [3] 110 % of control | [4] 108 % of control

Nc1ncnc(N)c1NC(=O)c1cc(Br)c(OCc2ccccc2)c(Br)c1
inactive: dose: 100.0 mg/kg/injection, schedule: Q01DX001 (ip), vehicle: DMSO 95 % of control | dose: 200.0 mg/kg/injection, schedule: Q01DX001 (ip), vehicle: DMSO 95 % of control | dose: 400.0 mg/kg/injection, schedule: Q01DX001 (ip), vehicle: DMSO 95 % of control

CCCCCCCCCCCCSc1nccnc1C
inactive: dose: 50.0 mg/kg/injection, schedule: Q01DX009 (ip), vehicle: Klucel (hydroxypropylcellulose) (HPC) 113 % of control | dose: 100.0 mg/kg/injection, schedule: Q01DX009 (ip), vehicle: Klucel (hydroxypropylcellulose) (HPC) 106 % of control | dose: 200.0 mg/kg/injection, schedule: Q01DX009 (ip), vehicle: Klucel (hydroxypropylcellulose) (HPC) 92 % of control

CC(C)(Cc1ccccc1)NC(=O)NCCCl
inactive: [8] 97 % of control | dose: 100.0 mg/kg/injection, schedule: Q04DX002 (ip), vehicle: saline 93 % of control | [9] 91 % of control | dose: 200.0 mg/kg/injection, schedule: Q04DX002 (ip), vehicle: saline 96 % of control | dose: 400.0 mg/kg/injection, schedule: Q01DX009 (ip), vehicle: saline 108 % of control | dose: 400.0 mg/kg/injection, schedule: Q04DX002 (ip), vehicle: saline 96 % of control

CCOC(=O)NC(=S)[S][Sb]([S]C(=S)NC(=O)OCC)[S]c1nc2ccc(N=Nc3ccc(NS(=O)(=O)c4ccc(NC(=O)C(Cl)Cl)cc4)cc3)cc2s1
inactive: dose: 100.0 mg/kg/injection, schedule: Q01DX001 (ip), vehicle: steriod suspending solution 95 % of control | dose: 200.0 mg/kg/injection, schedule: Q01DX001 (ip), vehicle: steriod suspending solution 105 % of control | dose: 400.0 mg/kg/injection, schedule: Q01DX001 (ip), vehicle: steriod suspending solution 92 % of control

O=C(C1CC2CCC1C2)C1CC2CCC1C2 (stereo not drawn)
inactive: [12] 98 % of control | [10] 97 % of control | [13] 95 % of control | [11] 100 % of control | [14] 96 % of control | dose: 400.0 mg/kg/injection, schedule: Q04DX003 (ip), vehicle: Klucel (hydroxypropylcellulose) (HPC) 100 % of control

Cc1ccc2[nH]c3c(c2c1)CCCC3
inactive: dose: 50.0 mg/kg/injection, schedule: Q01DX001 (ip), vehicle: saline 101 % of control | [2] 101 % of control | [3] 107 % of control | [4] 101 % of control

CN(C)c1ccc(C=Nc2cccc(O)c2)cc1
inactive: dose: 100.0 mg/kg/injection, schedule: Q01DX001 (ip), vehicle: carboxymethylcellulose (CMC) 102 % of control | dose: 200.0 mg/kg/injection, schedule: Q01DX001 (ip), vehicle: carboxymethylcellulose (CMC) 88 % of control | dose: 400.0 mg/kg/injection, schedule: Q01DX001 (ip), vehicle: carboxymethylcellulose (CMC) 94 % of control

c1cc[c]([Ge]([c]2ccccc2)[c]2ccccc2)cc1.c1ccc([Si](c2ccccc2)c2ccccc2)cc1
inactive: dose: 25.6 mg/kg/injection, schedule: Q04DX002 (ip), vehicle: saline with Tween-80 86 % of control | dose: 64.0 mg/kg/injection, schedule: Q04DX002 (ip), vehicle: saline with Tween-80 110 % of control | dose: 160.0 mg/kg/injection, schedule: Q04DX002 (ip), vehicle: saline with Tween-80 100 % of control | [1] 100 % of control
